Article PMC6896172, “Successful Targeting of the Warburg Effect in Prostate Cancer by Glucose-Conjugated 1,4-Naphthoquinones” (Cancers, 2019)

Key:
[1] = test system: PNT2 cells; test: MTT cytotoxicity assay in PNT2 cells; type: cell-based, human; details: 48 h of treatment
Text: (§1) For general experiments human prostate cancer cell lines PC-3 and DU145 (docetaxel-resistant, androgen-independent, AR-FL(−), AR-V7(−)), 22Rv1 and VCaP (docetaxel-sensitive, androgen-independent, AR-FL(+), AR-V7(+), and LNCaP (docetaxel sensitive, androgen-dependent, AR-FL(+), AR-V7(−) were used. PC-3, 22Rv1, LNCaP cells as well as the human prostate non-cancer cells PNT2 and RWPE-1 were purchased from ATCC (Manassas, VA, USA). VCaP were purchased from ECACC (Salisbury, UK). The human fibroblast cell line MRC-9, the human embryonic kidney cell line HEK 293T, as well as the human umbilical vascular endothelial cell line HUVEC were kindly donated by Prof. Dr. Dr. med. Sonja Loges (University Medical Center Hamburg-Eppendorf, Hamburg, Germany). Cells were cultured according to the manufacturers’ instructions and were recently authenticated by a commercial service (Multiplexion, Heidelberg, Germany). Culture conditions are described in the Supplementary Information.
(§2) MTT (3-(4,5-dimethylthiazol-2-yl)-2,5-diphenyltetrazolium bromide) cytotoxicity assay was used for the evaluation of cytotoxicity of the compounds or their combinations. Experiments were performed as previously described. In brief, 6000 cells/well were seeded in 96-well plate, incubated overnight, and treated with the drugs in 100 µL/well of 10% FBS/RPMI media containing 2 g/L of D-(+)-glucose for 48 h, unless otherwise stated. For 2 h treatment the cells were treated with the drugs for 2 h in the culture media, then the media was exchanged to fresh drug-free media (100 µL/well) containing MTT reagent and the further steps were performed as previously described.
(§3) Table S4. Cytotoxic activity of the synthesized compounds. Cytotoxicity was determined in human prostate cancer PC-3 cells versus human prostate non-cancer
(§4) PNT2 cells after 48 h of treatment, as well as its ratio. IC50 was evaluated using MTT assay. SI–selectivity index. #–the IC50s in both cell lines were >100 µM.
(§5) Anisomycin was used as a reference substance.
(§6) No Formula IC50(PC-3) IC50(PNT2) SI […]

[2] = test system: 22Rv1 cells; test: Cell fractionation followed by Western blotting; type: cell-based, human; details: 48 h
Procedure: Preparation of protein extracts for western blotting was performed as described previously. In brief, for western blotting, 1 × 10^6 cells/well were seeded in Petri dishes (ø 6 cm TC Dish (Sarstedt, Numbrecht, Germany) in 5 mL/dish), incubated overnight and treated with drugs in 5 mL/dish for an indicated time. Cells were harvested using a cell scraper, pelleted, and resuspended in the lysis buffer containing protease and phosphatase inhibitors. Further sample preparation and western blotting were performed as previously described with slight modifications. Relative optical density of the detected bands was quantified with Quantity One 4.6 software (Bio-Rad, Hercules, CA, USA). The primary and secondary antibodies used are listed in the Supplementary Information.
22Rv1 cells were seeded in T75 culture bottles (4 × 10^6 cells/bottle in 20 mL/bottle), treated for 48 h and harvested by scratching. The further separation of cytosolic, mitochondrial and nuclear fractions was performed using the Cell Fractionation Kit ab109719 (abcam, Cambridge, MA) as previously described. Mitochondrial and cytosolic fractions were concentrated using Amicon® Ultra-2 Centrifugal Filter device (Cat. No. UFC203024, Merck, Darmstadt, Germany). Nuclear fractions were additionally homogenized using QIAshedder kit (QIAGEN, Hilden, Germany).

[3] = test system: DU145 cells; test: MTT cytotoxicity assay in DU145 cells; type: cell-based; details: Homo sapiens, DU-145, 48 h of treatment, cancer
Procedure: (§7) Dr. Dr. med. Sonja Loges (University Medical Center Hamburg-Eppendorf, Hamburg, Germany). Cells were cultured according to the manufacturers’ instructions and were recently authenticated by a commercial service (Multiplexion, Heidelberg, Germany). Culture conditions are described in the Supplementary Information.
as §2

[4] = test system: LNCaP cells; test: MTT cytotoxicity assay in LNCaP cells; type: cell-based; details: Homo sapiens, 48 h of treatment, cancer
Procedure: as §7, §2

[5] = test system: PC-3 cells; test: MTT cytotoxicity assay in PC-3 cells; type: cell-based, human
Text: as §1, §2, §3, §4, §5, §6

[6] = test system: 22Rv1 cells; test: Intracellular ROS (CM-H2DCFDA, flow cytometry); type: cell-based, human; details: 2 h of treatment
Procedure: Intracellular ROS levels were estimated using the ROS-sensitive CM-H2DCFDA reagent (Cat. No. C6827, Molecular probes, Invitrogen, Eugene, OR, USA) as described before. In brief, 22Rv1 cells were seeded in 12-well plates (0.2 × 10^6 cells/well in 1 mL/well of media) and incubated overnight. The media was changed into freshly made pre-warmed 4 µM CM-H2DCFDA/PBS (0.5 mL/well) and incubated for 30 min (37 °C, 5% CO2, in the dark). Then, the CM-H2DCFDA solution was exchanged with 1 mL/well of pre-warmed PBS containing the drugs or H2O2 (positive control) at the indicated concentrations. After 2 h of incubation the cells were trypsinized and immediately analyzed by flow cytometry technique according to the manufacture’s protocols.

[7] = test system: RWPE-1 cells; test: MTT cytotoxicity assay in RWPE-1 cells; type: cell-based; details: Homo sapiens, 48 h of treatment, non-cancer
Procedure: as §7, §2

[8] = test system: HUVEC cells; test: MTT cytotoxicity assay in HUVEC cells; type: cell-based; details: Homo sapiens, 48 h of treatment, non-cancer
Procedure: as §7, §2

CC1(C)OC2OC(C(O)COC3=CC(=O)c4cccc(O)c4C3=O)C(O)C2O1 (stereo not shown) [Compound 11]
IC50 [1]: 4960 nM
IC50 ([1]; Homo sapiens, PNT2, 48 h): 4960 nM
release of mitochondrial proteins AIF and cytochrome C [2]: release of mitochondrial proteins
IC50 [3]: 470 nM
IC50 [4]: 570 nM
IC50 ([5]; Homo sapiens, PC-3, 48 h, 48 h of treatment): 2070 nM
SI [IC50(PNT2) / IC50(PC-3)] ([5]; ratio of IC50 in PNT2 cells to IC50 in PC-3 cells, 48 h): 2.40
effect on ROS level [6]: remarkable and significant increase of the ROS level
IC50 [7]: 1480 nM
IC50 [8]: 4310 nM
